Like-named read-outs stand apart in the source and are kept apart here. Some results are limits rather than exact numbers.

Experiment [1] has as its system SDF-1α induced Ca flux in SUP-T1 cells. The experiment is described as follows: Inhibition of SDF-1α induced Ca flux in SUP-T1 cells (FLIPR). The class given is cell-based. The following applies: Homo sapiens, read-out: inhibited SDF-1α induced Ca flux; for inhibition at 20 µg/mL: at 20 μg/mL. The procedure: Loading dye: Fluo-3, AM (Molecular Probes F-1241) is dissolved in anhydrous DMSO and stored frozen in aliquots. To increase the solubility of the dye in the loading medium, 10% (w/v) pluronic acid (Molecular Probes F-127) is added to the Fluo-3 stock solution immediately before use.
HBSS+20 mM Hepes buffer+0.2% BSA, pH 7.4. HBSS 10× [(w/o phenol red and sodium bicarbonate (Gibco 14 065-049)]; Hepes buffer 1M (Gibco 15 630-056), BSA (Sigma A3675). The flux buffer is vacuum-filtered and stored refrigerated for a maximum of 5 days. Before use in the experiment, the buffer is warmed at 37° C. in a waterbath.
The test compounds were diluted in flux buffer and added to 4 wells of a black microplate (4 parallel measurements per compound).
The chemokines are diluted in flux buffer to concentrations that are 4-fold higher than the desired concentrations required for stimulation of the cells (i.e. 2.5 nM for SDF-1α and 0.6 nM for RANTES). The chemokines were added to untreated 96-well Sero well compound plates (International Medical, Sterilin code 611F96). In the negative control well's (baseline monitoring), flux buffer is added instead of chemokine. As a positive control to check for dye loading efficiency, 20 μM digitonin (final concentration) was also included. The agonist plate was incubated in the FLIPR (37° C.) for 15-30 min.
SUP-T1 cells were centrifuged at room temperature (RT) and re-suspended in loading medium (RPMI-1640 containing 2% FBS and 4 μM Fluo-3, AM). The cells were incubate at room temperature for 45 min. then washed twice in flux buffer then incubated in flux buffer at room temperature for 10 min. The cells were centrifuged and re-suspended in flux buffer at a density of 3×10^6 cells per mL. […] The microplate is then gently centrifuged at room temperature. Homogeneous spreading of the cells on the bottom of the microplate wells was then confirmed with a microscope and the microplate was incubated in the FLIPR (37° C.) for 10 min. prior to testing.
The FLIPR settings (camera exposure time and laser power) are adjusted to obtain initial fluorescence values between 8,000 and 10,000 units. After monitoring a 20 second-baseline, the agonist (chemokine) (50 μL) is added by automatic pipettor with black pipette tips. Fluorescence is measured simultaneously in all wells of the microplate every 2 seconds (first 2 min) and thereafter every 6 seconds (additional 2 min). The average ca-flux measured in each set of 4 identical wells (one test compound) was calculated by the FLIPR software.
The compounds of the current invention were tested for inhibition of SDF-1α induced Ca flux in SUP-T1 cells using the method described above.

A further experiment relates to HIV-1 NL4.3 or IIIB. The experiment is described as follows: Inhibition of HIV-1 (NL4.3 or IIIB) replication in MT-4 cells (MTT). The class given is cell-based. As to conditions: Human immunodeficiency virus 1, IIIB. The procedure: Compounds were tested for their ability to inhibit HIV-1 replication in MT-4 cells or PBMC's (peripheral blood mononucleocytes) using published procedures (for example, see: Labrosse et al. J. Virol. 1998, 6381-6388; Simmons et al. J. Virol. 1998, 8453-8457; Donzella et al. Nature Medicine 1998, 72-77; Schols et al. J. Exp. Med. 1997, 1383-1388; De Clercq et al. Antiviral Res. 1997, 147-156; and Bridger et al. U.S. patent application Ser. No. 09/111,895). In addition to the above references, experimental methods for performing anti-viral assays can also be found in: Bridger et al. J. Med. Chem. 1995, 38, 366-378; Bridger et al. J. Med. Chem. 1996, 39, 109-119; Bridger et al. U.S. Pat. No. 5,698,546; Bridger et al. U.S. Pat. No. 5,583,131; Bridger et al. U.S. Pat. No. 5,817,807; De Clercq et al. Antimicrob. Agents and Chemother. 1994, 38, 668-674.
1. The HIV-1 strains NL4.3 and IIIB are T-tropic strains that exclusively use CXCR4 as the co-receptor for entry into cells. MT-4 Cells express CXCR4 but not CCR5.
Inhibition of HIV-1 NL4.3 (or IIIB) replication assays were performed as previously described (Bridger et al. J. Med. Chem. 1999, 42, 3971-3981; De Clercq et al. Proc. Natl. Acad. Sci, 1992, 89, 5286-5290; De Clercq et al. Antimicrob. Agents Chemother. 1994, 38, 668-674; Bridger et al. J. Med. Chem. 1995, 38, 366-378). Anti-HIV activity and cytotoxicity measurements were carried out in parallel. They were based on the viability of MT-4 cells that had been infected with HIV in the presence of various concentrations of the test compounds. After the MT-4 cells were allowed to proliferate for 5 days, the number of viable cells was quantified by a tetrazolium-based calorimetric 3-(4,5-dimethylthiazol-2-yl)-2,5-diphenyltetrazolium bromide (MTT) procedure in 96-well microtrays. In all of these assays, viral input (viral multiplicity of infection, MOI) was 0.01, or 100 times the 50% cell culture infective dose (CCID50). The EC50 was defined as the concentration required to protect 50% of the virus-infected cells against viral cytopathicity.

Setting [2] is: MT4, read-out: EC50, inhibition of HIV-1 NLA.3 or IIIB replication.

For the compound `c1ccc(CN2CCC(N(CCc3ccccn3)Cc3ccc(CNCc4ccccn4)cc3)CC2)cc1` [Example 182, N-[1-(benzyl)-4-piperidinyl]-N-[2-(2-pyridinyl)ethyl]-N′-(2-pyridinylmethyl)-1,4-benzenedimethanamine], the inhibition at 20 µM in experiment [1] is over 20%. In the case of `c1ccc(CNCc2ccc(CNc3cccc4c3NCCC4)cc2)nc1` [Example 9, N-(2-pyridinylmethyl)-N′-(1,2,3,4-tetrahydro-8-quinolinyl)-1,4-benzenedimethanamine], in experiment [1], the inhibition at 20 µg/mL is over 20%. Take `O=C(c1ccccc1)N1CCC(N(CCc2ccccn2)Cc2cccc(CNCc3ccccn3)c2)CC1` [Example 178, N-[1-benzoyl-4-piperidinyl]-N-[2-(2-pyridinyl)ethyl]-N′-(2-pyridinylmethyl)-1,3-benzenedimethanamine]: in experiment [1], the inhibition at 20 µM is over 20%. On to `c1ccc(CN(Cc2ccc(CNCc3ccccn3)cc2)C2CCCc3cccnc32)cc1` (stereo not drawn) [Example 60, N-(2-pyridinylmethyl)-N′-(phenylmethyl)-N′-(5,6,7,8-tetrahydro-8-quinolinyl)-1,4-benzenedimethanamine], for which the inhibition at 20 µg/mL in experiment [1] was over 20%. On to `c1ccc(CN2CCC(N(Cc3ccc(CNCc4ccccn4)cc3)Cc3ccccn3)C2)cc1` (stereo not drawn) [Example 145, N-[1-(benzyl)-3-pyrrolidinyl]-N,N′-bis(2-pyridinylmethyl)-1,4-benzenedimethanamine], for which, in experiment [1], the inhibition at 20 µM is over 20%. The same measure, in the same setting: in the case of `CC(C)N1CCC(N(Cc2ccc(CNCc3ccccn3)cc2)Cc2ccccn2)CC1` [Example 147, N-[1-(iso-propyl)-4-piperidinyl]-N,N′-bis(2-pyridinylmethyl)-1,4-benzenedimethanamine] it was over 20%; in that of `c1ccc(-c2[nH]c3ccccc3c2CN(CCc2ccccn2)Cc2ccc(CNCc3ccccn3)cc2)cc1` [Example 184, N-[(2-phenyl)benzo[b]pyrrol-3-ylmethyl]-N-[2-(2-pyridinyl)ethyl]-N′-(2-pyridinylmethyl)-1,4-benzenedimethanamine], over 20%; in that of `Cc1onc(-c2ccccc2Cl)c1C(=O)NN1CCC(N(Cc2ccc(CNCc3ccccn3)cc2)Cc2ccccn2)CC1` [Example 135, N-[1-[3-(2-chlorophenyl)-5-methyl-isoxazol-4-carboxamido]-4-piperidinyl]-N,N′-bis(2-pyridinylmethyl)-1,4-benzenedimethanamine], over 20%.

`CCCCN1CCC(N(CCc2ccccn2)Cc2cccc(CNCc3ccccn3)c2)CC1` [Example 177, N-[1-butyl-4-piperidinyl]-N-[2-(2-pyridinyl)ethyl]-N′-(2-pyridinylmethyl)-1,3-benzenedimethanamine]: the inhibition at 20 µM in experiment [1] is over 20%.

Regarding `O=C(c1cnccn1)N(Cc1ccc(CNCc2ccccn2)cc1)C1CCCc2cccnc21` (stereo not drawn) [Example 75, N-[[4-[[(2-pyridinylmethyl)amino]methyl]phenyl]methyl]-N-(5,6,7,8-tetrahydro-8-quinolinyl)-pyrazinamide], the inhibition at 20 µg/mL in experiment [1] is over 20%.

`c1ccc(CNCc2ccc(CN(Cc3ccc[nH]3)C3CCCc4cccnc43)cc2)nc1` (stereo not drawn) [Example 26, N-(2-pyridinylmethyl)-N′-[2-pyrrolylmethyl]-N′-(5,6,7,8-tetrahydro-8-quinolinyl)-1,4-benzenedimethanamine]: the inhibition at 20 µg/mL in experiment [1] was over 20%. Turning to `Cc1onc(-c2ccccc2Cl)c1C(=O)N1CCC(N(Cc2cccc(CNCc3ccccn3)c2)Cc2ccccn2)CC1` [Example 98, N,N′-bis(2-pyridinylmethyl)-N-[1-[3-(2-chlorophenyl)-5-methyl-isoxazol-4-oyl]-4-piperidinyl]-1,3-benzenedimethanamine], the inhibition at 20 µM in experiment [1] is over 20%. Turning to `NCCN(Cc1ccc(CNCc2ccccn2)cc1)C1CCCc2cccnc21` (stereo not drawn) [Example 31, N-(2-pyridinylmethyl)-N′-(2-aminoethyl)-N′-(5,6,7,8-tetrahydro-8-quinolinyl)-1,4-benzenedimethanamine], the inhibition at 20 µg/mL in experiment [1] is over 20%. A word on the EC50: it is the concentration needed to bring the measured effect to its halfway point. As for `N#Cc1ccc(CN(Cc2ccc(CNCc3ccccn3)cc2)C2CCCc3cccnc32)cc1` (stereo not drawn) [Example 101, N-[(4-cyanophenyl)methyl]-N′-(2-pyridinylmethyl)-N-(5,6,7,8-tetrahydro-8-quinolinyl)-1,4-benzenedimethanamine], the concentration giving a half-maximal response (EC50) in the experiment with HIV-1 NL4.3 or IIIB (setting [2]) is under 20 µM.

With `O=C(c1ccccn1)N(Cc1ccc(CNCc2ccccn2)cc1)C1CCCc2cccnc21` (stereo not drawn) [Example 79, N-[[4-[[(2-pyridinylmethyl)amino]methyl]phenyl]methyl]-N-(5,6,7,8-tetrahydro-8-quinolinyl)-picolinamide], the inhibition at 20 µg/mL in experiment [1] is over 20%. Turning to `Oc1cccc2ccc(CN(Cc3ccc(CNCc4ccccn4)cc3)C3CCCCc4cccnc43)nc12` (stereo not drawn) [Example 157, N-[(8-hydroxy)-2-quinolylmethyl]-N′-(2-pyridinylmethyl)-N-(6,7,8,9-tetrahydro-5H-cyclohepta[b]pyridin-9-yl)-1,4-benzenedimethanamine], the 50% effective concentration (EC50) in the experiment on HIV-1 NL4.3 or IIIB (setting [2]) is under 20 µM. Consider `c1ccc(CNCc2ccc(CNC3CCc4cccnc43)cc2)nc1` (stereo not drawn) [Example 3, N-(2-pyridinylmethyl)-N′-(6,7-dihydro-5H-cyclopenta[b]pyridin-7-yl)-1,4-benzenedimethanamine], for which the EC50 with HIV-1 NL4.3 or IIIB (MT4, read-out: EC50, inhibition of HIV-1 NL4.3 or IIIB replication) is under 20 µg/mL.

Consider `NCC(=O)N(Cc1ccc(CNCc2ccccn2)cc1)C1CCCc2cccnc21` (stereo not drawn) [Example 72, N-[[4-[[(2-pyridinylmethyl)amino]methyl]phenyl]methyl]-N-(5,6,7,8-tetrahydro-8-quinolinyl)-glycinamide], for which the inhibition at 20 µg/mL in experiment [1] is over 20%. Same read-out and setting: with `O=C(NC1CCCCc2cccnc21)c1ccc(CNCc2ccccn2)cc1` (stereo not drawn) [Example 82, N-(6,7,8,9-tetrahydro-5H-cyclohepta[b]pyridin-9-yl)-4-[[(2-pyridinylmethyl)amino]methyl]benzamide] the figure was over 20%. On to `O=C(NN1CCC(N(Cc2ccc(CNCc3ccccn3)cc2)Cc2ccccn2)CC1)c1cccnc1` [Example 131, N-[1-(3-pyridinecarboxamido)-4-piperidinyl]-N,N′-bis(2-pyridinylmethyl)-1,4-benzenedimethanamine], for which, in experiment [1], the inhibition at 20 µM is over 20%.

Consider `c1ccc(COc2ccc(CN(Cc3ccc(CNCc4ccccn4)cc3)C3CCCCc4cccnc43)cc2)cc1` (stereo not drawn) [Example 105, N-[(4-benzyloxyphenyl)methyl]-N′-(2-pyridinylmethyl)-N-(6,7,8,9-tetrahydro-5H-cyclohepta[b]pyridin-9-yl)-1,4-benzenedimethanamine], for which, in the experiment with HIV-1 NL4.3 or IIIB (setting [2]), the EC50 was under 20 µM.

Source of the values: US6750348B1, “Chemokine receptor binding heterocyclic compounds” (AnorMED, Inc., priority 1999, dated 2004).
